Article PMC7769561, “Antileishmanial activity of synthetic analogs of the naturally occurring quinolone alkaloid N-methyl-8-methoxyflindersin” (PLoS ONE, 2020)
Converted amounts (≈) assume the structure as drawn. “And” between values parts separate entries of the source, which are not always exact repeats. Identical values can stand only once. “Also recorded” adds a separate entry of the source. Like-named read-outs stand apart in the source and are kept apart here.

Columns and labels:
[1] = system: L. (V.) panamensis intracellular amastigotes; assay: Transmission electron microscopy of L. (V.) panamensis intracellular amastigotes in hMDMs; type: cell-based, Leishmania (Viannia) panamensis; set-up: Nucleus (ultrastructural alteration grade) / Vacuoles (ultrastructural alteration grade): key: -: no alteration/absence; +: low alteration/low presence; ++: alteration/moderate presence; +++: serious disturbance/abundant presence; details: compound at EC50, 72 h, TEM; on Cell membrane (ultrastructural alteration grade): key: -: no alteration/absence; +: low alteration/low presence; ++: alteration/moderate presence; +++: serious disturbance/abundant presence; on Flagellum (flagellar/axonema pocket) (grade): key: -: no alteration/absence; +: low alteration/low presence; ++: alteration/moderate presence; +++: serious disturbance/abundant presence; on LB (lipid bodies, grade): key: -: no alteration/absence; +: low alteration/low presence; ++: alteration/moderate presence; +++: serious disturbance/abundant presence; on Mitochondria/Kinetoplasts (ultrastructural alteration grade): key: -: no alteration/absence; +: low alteration/low presence; ++: alteration/moderate presence; +++: serious disturbance/abundant presence
Excerpt: (§1) This procedure involved including fresh resin and 100–200-nm-wide ultrafine cuts observed by TEM (100X–10.000X) (HITACHI-HU-12; Hitachi, Tokyo, Japan).

[2] = Treatment toxicity in hamsters (live weight, ALT, creatinine, BUN); type: in vivo, golden hamster (Mesocrisetus auratus)
Excerpt: (§2) The hamsters were monitored every 4 weeks to assess their appearance and weight and the lesion size. We categorized each compound’s effectiveness pre- and posttreatment as follows: (i) cure (complete disappearance of lesions), (ii) improvement (>10% reduced lesion area), and (iii) therapeutic failure or nonresponse (increased lesion size). The health status was monitored weekly for 3 months (12 weeks) posttreatment. After 3 months, the hamsters were euthanized in a CO2 chamber. We performed histopathological analysis after necropsy of the affected tissues and organs. In addition, we evaluated treatment cytotoxicity using LW monitoring and biochemical parameters (alanine aminotransferase [ALT], creatinine, and blood urea nitrogen [BUN]) pretreatment and 45 days after ointment administration.

[3] = system: L. (V.) panamensis-infected hMDMs; assay: Transmission electron microscopy of L. (V.) panamensis-infected hMDMs; type: cell-based, human; details: compound at EC50, 72 h, TEM
Excerpt: as §1

[4] = system: L. (V.) panamensis intracellular amastigotes; assay: Antileishmanial activity in L. (V.) panamensis intracellular amastigotes in hMDMs; type: cell-based, Leishmania (Viannia) panamensis; details: for SI (selectivity index = CC50/EC50): CC50 hMDMs / EC50 intracellular amastigotes; for EC50 Intracellular amastigotes: amastigotes in hMDMs, 72 h, ± SD
Method: Next, 100 μL of the suspension was cultured in 96-well plates and infected with L. (V.) panamensis promastigotes (HMOM/COL/87/UA-140) at a 10:1 parasite:cell ratio. We incubated the plates in a 5% CO2 atmosphere for 4 h at 35°C. After incubation, we removed noninternalized parasites by washing the cells with 0.9% NaCl saline solution (Baxter International, Deerfield, IL, USA). The cells were incubated again for 24 h and then treated with each quinoline alkaloid–like compound at a concentration of 100, 10, 1, 0.1, and 0.01 μg/mL in a 5% CO2 atmosphere for 72 h at 36°C. Next, we quantified the percentage of infected cells using fluorescence microscopy, as previously described by Pérez-Cordero in 2011 [23], and quantified the parasite load (amount of intracellular promastigotes and amastigotes per cell) using Giemsa staining and flow cytometry (Cytomics FC 500 MPL; Beckman Coulter, Brea, CA, USA). […] Results were expressed as EC50 using Prism GraphPad software’s probit nonlinear regression analysis (https://www.graphpad.com/scientific-software/prism/).
(§3) We used GraphPad Prism nonlinear regression analysis to estimate the percentage mortality with regard to CC50 and EC50. […] The antileishmanial activity with regard to promastigotes was classified as active according to Eq 2: Active=EC50<[LC50/2], (2) where LC50 is the median lethal concentration. We also used GraphPad Prism nonlinear regression analysis to determine the intracellular antileishmanial activity (concentration vs. response), depending on the infection (number of infected cells) and parasite burden (number of parasites/cell) obtained in experimental conditions. Parasite inhibition was estimated using Eq 3, where the plate MFI is 100% parasites: Infectioninhibition(%)=100−[(MIFexposedparasites/MIFunexposedparasites×100)] (3)
The percentage inhibition was used to calculate EC50 by nonlinear regression analysis (fluorescence microscopy), while the parasite burden was evaluated as the percentage of intracellular promastigotes and amastigotes in 100 infected cells (Giemsa staining). […] The selectivity index (SI) was estimated using the following formula: SI=CC50/EC50

[5] = system: L. (V.) panamensis (MHOM/COL/87/UA140-EGFP); assay: Therapeutic in vivo response in hamsters with experimental cutaneous leishmaniasis; set-up: species or system golden hamster (Mesocrisetus auratus)
Excerpt: We used a golden hamster (Mesocrisetus auratus) model to evaluate the therapeutic response of synthetic alkaloid compounds 2 and 8. Male and female 6-week-old hamsters with a mean live weight (LW) of 120 g were infected by a dorsal intradermic injection of L. (V.) panamensis (MHOM/COL/87/UA140-EGFP) promastigotes. After the infected hamsters developed ulcers, they were randomly divided into three groups (n = 6 each) and treated topically with 1% ointment formulated from compounds 2 and 8.
as §2
The in vivo efficacy of compounds 1, 2, and 8 was expressed as a percentage cure, improvement, or nonresponse compared to the beginning of treatment. Efficacy was evaluated in vivo to compare percentages, the frequency of change, and treatment cytotoxicity in the hamster model. We used GraphPad Prism to determine ROS and NO production and the apoptotic cell percentage. One- or two-way analysis of variance (ANOVA; response–time kinetics) was used to compare treatments after confirming normal data distribution. P < 0.05 was considered statistically significant by comparing untreated cells (experiments on untreated hMDMs) with infected cells (experiments on untreated and treated hMDMs).

[6] = system: L. (V.) panamensis-infected hMDMs; assay: NO production in L. (V.) panamensis-infected hMDMs (DAF-FM flow cytometry); type: cell-based, human; details: compound at EC50, 24, 48 and 72 h
Method: (§4) Next, we detached the cells with ethylenediaminetetraacetic acid (EDTA)/trypsin (Lonza, MD, USA) and 2',7'-dichlorodihydrofluorescein diacetate (H2DCFDA) tagged on a 5 μM fluorescent tube (Sigma-Aldrich) in order to identify intracellular ROS and/or 4-amino-5-methylamino-2′,7′-difluorofluorescein (DAF-FM; Sigma-Aldrich) for NO production in a 5% CO2 atmosphere for 45 min at 37°C. ROS and NO were quantified using flow cytometry (FACS Canto II) at a wavelength of 480 nm. Untreated cells were used as negative controls, while cells treated with 0.0001% H2O2 and 1 μM phorbol myristate acetate were used as ROS production (positive) controls. LPS (10 ng/mL) and phytohemagglutinin (PHA-M) (10 μL/mL) (Invitrogen) were used as positive controls for NO production.

[7] = system: L. (V.) panamensis-infected hMDMs; assay: ROS generation in L. (V.) panamensis-infected hMDMs (H2DCFDA flow cytometry); type: cell-based, human; details: compound at EC50, 4, 24, 48 and 72 h
Method: as §4

[8] = system: L. (V.) panamensis promastigotes; assay: Antileishmanial activity in L. (V.) panamensis promastigotes (resazurin, 72 h); type: cell-based, Leishmania (Viannia) panamensis
Method: They were treated with quinoline alkaloid–like compounds at a concentration of 100, 10, 1, 0.1, and 0.01 μg/mL for 72 h at 26°C. Next, we determined antileishmanial activity using the resazurin method (Sigma-Aldrich). Promastigotes treated with amphotericin B (Sigma-Aldrich) and pentamidine (Sanofi-Aventis, Gentilly, France) were used as parasite death (positive) controls. Results were expressed as the medial effective concentration (EC50) using Prism GraphPad software for nonlinear regression analysis (https://www.graphpad.com/scientific-software/prism/).
(§5) All assays required at least three independently duplicated experiments. We determined cytotoxicity against hMDMs and effectivity in L. (V) panamensis promastigotes according to each treatment’s mortality (compound and concentration) using Eq 1, where the control mean fluorescence intensity (MFI) was 100% viability: Validityinhibition(%)=100−[MIFexposedcells/MIFunexposedcells×100] (1)
as §3

hMDMs = assay: Cytotoxicity in hMDMs (resazurin, 72 h); details: class by CC50
Method: (§6) We isolated hMDMs from buffy coats donated by the Institute of Local Science (Biotechnology and Health Innovation, Bogotá, Colombia) and spun them in Lymphoprep density gradient medium (Stem-Cell, Vancouver, Canada).
(§7) Next, we added 100 μL of this culture to each quinoline alkaloid–like compound at a concentration of 200, 20, 2, 0.2, and 0.02 μg/mL. […] Cells treated with amphotericin B (Sigma-Aldrich) were used as cell apoptosis (positive) controls. Results were expressed as the medial cytotoxic concentration (CC50) using Prism GraphPad software for nonlinear regression analysis (https://www.graphpad.com/scientific-software/prism/).
as §5, §3

[9] = Cytotoxicity in hMDMs (resazurin, 72 h); details: human
Method: as §6, §7, §5, §3

[10] = hamsters, topical 1% ointment, 3 months posttreatment, n = 6
[11] = L. (V.) panamensis promastigotes, ± SD
[12] = L. (V.) panamensis promastigotes, ± SD, read-out: EC50 Intracellular promastigotes (converted)

## Nc1ccc2cccc(O)c2n1 [Compound 8, 2-amino-8-hydroxyquinoline]
[1]
  Cell membrane (ultrastructural alteration grade): -
  Flagellum (flagellar/axonema pocket) (description): Membrane swelling
  Flagellum (flagellar/axonema pocket) (grade): +++
  LB (lipid bodies, grade): -
  Mitochondria/Kinetoplasts (description): Membrane swelling
  Mitochondria/Kinetoplasts (ultrastructural alteration grade): +++
  Nucleus (description): Abnormal distribution of chromatine
  Nucleus (ultrastructural alteration grade): ++
  PV (description): Individuals attached to the parasite
  PV (parasitophorous vacuoles, grade): +
  Vacuoles (description): Double membrane (autophagic-digestives)
  Vacuoles (ultrastructural alteration grade): +++
[2]; compared to before treatment
  Serum BUN level: significantly decreased
[2]; topical 1% ointment
  Cytotoxicity-related clinical manifestations: No cytotoxicity-related clinical manifestations
  Live weight posttreatment: no evident changes during treatment
[3]
  Cell membrane (ultrastructural modification grade): -
  LB (lipid bodies, grade): -
  Mitochondria (ultrastructural modification grade): +
  Nucleus (description): Abnormal distribution of chromatin; also recorded: Nuclear membrane alteration
  Nucleus (ultrastructural modification grade): +++
  PV (description): Individuals, attached to the parasite
  PV (parasitophorous vacuoles, grade): +
  Parasites (grade): +
  Vacuoles (description): Double membrane (autophagic-digestives)
  Vacuoles (ultrastructural modification grade): +++
[4]; intracellular amastigotes, class by EC50
  Antileishmanial activity class: high (high if EC50 < 25 μg/mL)
[5]; hamsters cured by treatment, hematoxylin/eosin
  Histopathologic analysis of the skin, cured hamsters: mixed leucocyte infiltratation
[5]; hamsters, topical 1% ointment
  Lesion size during treatment: significantly reduced lesions
[5]; [10]
  Improvement (reduced lesion size), percentage of the experimental group: 50%
  No effect (poor response), percentage of the experimental group: 16.6%
  Total cure (healing), percentage of the experimental group: 33.3%
[6]
  NO production compared to untreated infected hMDMs: do not modulate the induction of NO production
[7]
  ROS generation compared to infected control cells: no significant variations
[8]; read-out: EC50 Intracellular promastigotes
  EC50: 1.6 µg/mL and 10 µM
hMDMs
  Cytotoxicity class toward hMDMs: high (high if CC50 < 100 μg/mL)
[9]
  CC50 at 72 h: 5.5 µg/mL and 34 µM

## COc1ccccc1-c1cc(C(=O)O)c2ccc(C)c(C)c2n1 [Compound 6, carboxylic acid-7,8-tetrahydro-quinoline]
[4]
  SI (selectivity index = CC50/EC50): 1.89
  EC50 Intracellular amastigotes: 46.5 ± 9.4 µg/mL (≈ 151 µM)
[8]; [11]
  EC50 Intracellular promastigotes: 61.3 ± 29.6 µg/mL (≈ 199 µM)
[8]; [12]
  EC50: 240 µM

## Cc1cc2ncccc2c2nc(N)n(C)c12 [Compound 7, 3,4-dimethyl-3H-imidazol [4.5f]-quinoline-2-amine]
[4]
  SI (selectivity index = CC50/EC50): 1.70
  EC50 Intracellular amastigotes: 55.8 ± 8.3 µg/mL (≈ 263 µM)
[8]; [11]
  EC50 Intracellular promastigotes: 26.5 ± 5.8 µg/mL (≈ 125 µM)
[8]; [12]
  EC50: 134 µM

## CCCc1c(CC)nc2ccccc2c1C(=O)O [Compound 3, carboxylic acid 2-ethyl-3-propyl-4-quinolinine]
[4]
  SI (selectivity index = CC50/EC50): 1.27
  EC50 Intracellular amastigotes: 121.9 ± 6.2 µg/mL (≈ 501 µM)
[8]; [11]
  EC50 Intracellular promastigotes: 93.8 ± 6.3 µg/mL (≈ 386 µM)
[8]; [12]
  EC50: 496 µM
hMDMs
  Cytotoxicity class toward hMDMs: moderate (moderate if CC50 from 100 to <200 μg/mL)

## COc1ccc2c(OC)c3ccoc3nc2c1OC [Compound 5, 4,7,8-trimetoxifure [2,3-b]-quinoline]
[4]
  SI (selectivity index = CC50/EC50): 1.73
  EC50 Intracellular amastigotes: 61.7 ± 1.1 µg/mL (≈ 238 µM)
[8]; [11]
  EC50 Intracellular promastigotes: 66.4 ± 13 µg/mL (≈ 256 µM)
[8]; [12]
  EC50: 256 µM
